Legend:
ALOMY [1] = assay: Post-emergence herbicidal action against ALOMY; assay type: in vivo, Alopecurus myosuroides; details: visual assessment about 3 weeks after treatment vs untreated controls
Summary of the method: (§1)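 Percent herbicidal action is rated by eye about 3 weeks after treatment against untreated controls, where 100% means dead plants and 0% means like controls. Plants in sandy loam are sprayed on green parts at the one-leaf stage with aqueous WP or EC preparations at 600 to 800 l/ha plus 0.2% wetting agent.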

AVEFA [2] = assay: Pre-emergence herbicidal action against AVEFA; assay type: in vivo, Avena fatua; details: 80 g/ha, pre-emergence
Summary of the method: (§2)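 Seeds sown in sandy loam, soil-covered; compound sprayed on soil surface pre-emergence. Application: WP/EC, 600–800 l/ha, 0.2% wetting agent. Readout: visual % damage at 3 weeks.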

SETVI [3] = assay: Post-emergence herbicidal action against SETVI; assay type: in vivo, Setaria viridis
Summary of the method: as §1

DIGSA [4] = assay: Pre-emergence herbicidal action against DIGSA; assay type: in vivo, Digitaria sanguinalis
Summary of the method: as §2

ABUTH [5] = assay: Pre-emergence herbicidal action against ABUTH; assay type: in vivo, Abutilon theophrasti
Summary of the method: as §2

AVEFA [6] = assay: Post-emergence herbicidal action against AVEFA; assay type: in vivo, Avena fatua; details: 20 g/ha, visual assessment about 3 weeks after treatment, 100% = plants have died, 0% = like control plants
Summary of the method: as §1

VIOTR [7] = assay: Post-emergence herbicidal action against VIOTR; assay type: in vivo, Viola tricolor
Summary of the method: as §1

ECHCG = assay: Pre-emergence herbicidal action against ECHCG; assay type: in vivo, Echinochloa crus-galli
Summary of the method: as §2

POLCO = assay: Pre-emergence herbicidal action against POLCO; assay type: in vivo, Polygonum convolvulus; details: dosage 80 g/ha
Summary of the method: as §2

MATIN [8] = assay: Pre-emergence herbicidal action against MATIN; assay type: in vivo, Matricaria inodora
Summary of the method: as §2

MATIN [9] = assay: Post-emergence herbicidal action against MATIN; assay type: in vivo, Matricaria inodora
Summary of the method: as §1

ABUTH [10] = assay: Post-emergence herbicidal action against ABUTH; assay type: in vivo, Abutilon theophrasti; details: visual assessment about 3 weeks after treatment vs untreated controls
Summary of the method: as §1

VIOTR [11] = assay: Pre-emergence herbicidal action against VIOTR; assay type: in vivo, Viola tricolor
Summary of the method: as §2

DIGSA [12] = assay: Post-emergence herbicidal action against DIGSA; assay type: in vivo, Digitaria sanguinalis
Summary of the method: as §1

LOLRI = assay: Pre-emergence herbicidal action against LOLRI; assay type: in vivo, Lolium rigidum; details: 80 g/ha
Summary of the method: as §2

SETVI [13] = assay: Pre-emergence herbicidal action against SETVI; assay type: in vivo, Setaria viridis
Summary of the method: as §2

AMARE [14] = assay: Post-emergence herbicidal action against AMARE; assay type: in vivo, Amaranthus retroflexus; details: 20 g/ha, visual assessment about 3 weeks after treatment, 100% = plants have died, 0% = like control plants
Summary of the method: as §1

ALOMY [15] = assay: Pre-emergence herbicidal action against ALOMY; assay type: in vivo, Alopecurus myosuroides; details: pre-emergence
Summary of the method: as §2

AMARE [16] = assay: Pre-emergence herbicidal action against AMARE; assay type: in vivo, Amaranthus retroflexus
Summary of the method: as §2

VERPE [17] = assay: Pre-emergence herbicidal action against VERPE; assay type: in vivo, Veronica persica; details: Veronica persica, 504 h, dosage 80 g/ha
Summary of the method: as §2

VERPE [18] = assay: Post-emergence herbicidal action against VERPE; assay type: in vivo, Veronica persica; details: Veronica persica, 504 h, 20 g/ha
Summary of the method: as §1

PHBPU [19] = assay: Post-emergence herbicidal action against PHBPU; assay type: in vivo, Pharbitis purpurea; details: Ipomoea purpurea, 504 h
Summary of the method: as §1

PHBPU [20] = assay: Pre-emergence herbicidal action against PHBPU; assay type: in vivo, Pharbitis purpurea; details: Ipomoea purpurea, 504 h, dosage 80 g/ha
Summary of the method: as §2

[21] = 80 g/ha, scored visually after 3 weeks vs untreated controls (100% = plants have died, 0% = like control plants)

SMILES: CCn1nnnc1NC(=O)c1ccc(I)c(C(=O)NC)c1Cl [Example 2-195]
- Post-emergence action against ALOMY in % (ALOMY [1]; dosage 5 g/ha): 80%
- Post-emergence action against ALOMY in % (ALOMY [1]; dosage 20 g/ha): 100%
- Pre-emergence action against AVEFA in % (AVEFA [2]): 80%
- Post-emergence action against SETVI in % (SETVI [3]; dosage 5 g/ha): 90%
- Post-emergence action against SETVI in % (SETVI [3]; dosage 20 g/ha): 100%
- Pre-emergence action against DIGSA in % (DIGSA [4]; dosage 20 g/ha): 90%
- Pre-emergence action against DIGSA in % (DIGSA [4]; dosage 80 g/ha): 100%
- Pre-emergence action against ABUTH (herbicidal activity) (ABUTH [5]; [21]): 100%
- Pre-emergence action against ABUTH (herbicidal activity in percent) (ABUTH [5]; dosage 20 g/ha, scored visually after 3 weeks vs untreated controls, 100% = plants have died, 0% = like control plants): 100%
- Post-emergence action at 20 g/ha against AVEFA in % (AVEFA [6]): 80%
- Post-emergence action against VIOTR in % (VIOTR [7]; 5 g/ha): 100%
- Post-emergence action against VIOTR in % (VIOTR [7]; 20 g/ha): 100%
- Pre-emergence action against ECHCG in % (ECHCG; 80 g/ha): 80%
- Pre-emergence action against POLCO in % (POLCO): 80%
- Pre-emergence action against MATIN in % (MATIN [8]; dosage 20 g/ha): 100%
- Pre-emergence action against MATIN in % (MATIN [8]; dosage 80 g/ha): 100%
- Post-emergence action against MATIN in % (MATIN [9]; dosage 5 g/ha): 80%
- Post-emergence action against MATIN in % (MATIN [9]; dosage 20 g/ha): 90%
- Post-emergence action against ABUTH in % (ABUTH [10]; dosage 5 g/ha): 100%
- Post-emergence action against ABUTH in % (ABUTH [10]; dosage 20 g/ha): 100%
- Pre-emergence action against VIOTR in % (VIOTR [11]; dosage 20 g/ha): 100%
- Pre-emergence action against VIOTR in % (VIOTR [11]; dosage 80 g/ha): 100%
- Post-emergence action against DIGSA in % (DIGSA [12]; 5 g/ha): 80%
- Post-emergence action against DIGSA (DIGSA [12]; 20 g/ha): 90%
- Pre-emergence action against LOLRI in % (LOLRI): 90%
- Pre-emergence action against SETVI in % (SETVI [13]; dosage 20 g/ha): 80%
- Pre-emergence action against SETVI in % (SETVI [13]; dosage 80 g/ha): 100%
- Post-emergence action at 20 g/ha against AMARE in % (AMARE [14]): 100%
- Pre-emergence action against ALOMY (herbicidal activity) (ALOMY [15]; [21]): 100%
- Pre-emergence action against AMARE in % (AMARE [16]; 20 g/ha, scored visually after 3 weeks vs untreated controls, 100% = plants have died, 0% = like control plants): 100%
- Pre-emergence action against AMARE in % (AMARE [16]; [21]): 100%

SMILES: Cn1nnnc1NC(=O)c1ccc(C(F)F)c(C(=O)NC2CC2)c1Br [Example 1-227]
- pest or weed control at 80 g/ha (AVEFA [2]; Avena fatua, 504 h): 90%
- pest or weed control at 80 g/ha (VERPE [17]): 100%
- pest or weed control at 20 g/ha (VERPE [18]): 80%
- pest or weed control at 5 g/ha (PHBPU [19]; dosage 5 g/ha): 80%
- pest or weed control at 20 g/ha (PHBPU [19]; dosage 20 g/ha): 90%
- pest or weed control at 20 g/ha (DIGSA [4]; Digitaria sanguinalis, 504 h, dosage 20 g/ha): 100%
- pest or weed control at 80 g/ha (DIGSA [4]; Digitaria sanguinalis, 504 h, dosage 80 g/ha): 100%
- pest or weed control at 80 g/ha (ABUTH [5]; Abutilon theophrasti, 504 h, 80 g/ha, scored visually after 3 weeks vs untreated controls (100% = plants have died, 0% = like control plants)): 100%
- pest or weed control at 20 g/ha (ABUTH [5]; Abutilon theophrasti, 504 h, dosage 20 g/ha, scored visually after 3 weeks vs untreated controls, 100% = plants have died, 0% = like control plants, read-out: Pre-emergence action against ABUTH (herbicidal activity in percent)): 100%
- pest or weed control at 20 g/ha (AVEFA [6]; Avena fatua, 504 h): 80%
- pest or weed control at 5 g/ha (VIOTR [7]; Viola tricolor, 504 h, 5 g/ha): 100%
- pest or weed control at 20 g/ha (VIOTR [7]; Viola tricolor, 504 h, 20 g/ha): 100%
- pest or weed control at 20 g/ha (ECHCG; Echinochloa crus-galli, 504 h, 20 g/ha): 80%
- pest or weed control at 80 g/ha (ECHCG; Echinochloa crus-galli, 504 h, 80 g/ha): 90%
- pest or weed control at 80 g/ha (POLCO; Fallopia convolvulus, 504 h): 90%
- pest or weed control at 20 g/ha (MATIN [8]; Tripleurospermum inodorum, 504 h, dosage 20 g/ha): 80%
- pest or weed control at 80 g/ha (MATIN [8]; Tripleurospermum inodorum, 504 h, dosage 80 g/ha): 100%
- pest or weed control at 5 g/ha (ABUTH [10]; Abutilon theophrasti, 504 h, dosage 5 g/ha): 100%
- pest or weed control at 20 g/ha (ABUTH [10]; Abutilon theophrasti, 504 h, dosage 20 g/ha): 100%
- pest or weed control at 20 g/ha (VIOTR [11]; Viola tricolor, 504 h, dosage 20 g/ha): 100%
- pest or weed control at 80 g/ha (VIOTR [11]; Viola tricolor, 504 h, dosage 80 g/ha): 100%
- pest or weed control at 5 g/ha (DIGSA [12]; Digitaria sanguinalis, 504 h, 5 g/ha): 100%
- pest or weed control at 20 g/ha (DIGSA [12]; Digitaria sanguinalis, 504 h, 20 g/ha): 100%
- pest or weed control at 80 g/ha (LOLRI; Lolium rigidum, 504 h): 90%
- pest or weed control at 80 g/ha (PHBPU [20]): 80%
- pest or weed control at 80 g/ha (SETVI [13]; Setaria viridis, 504 h, dosage 80 g/ha): 100%
- pest or weed control at 20 g/ha (AMARE [14]; Amaranthus retroflexus, 504 h): 100%
- pest or weed control at 80 g/ha (ALOMY [15]; Alopecurus myosuroides, 504 h, 80 g/ha, scored visually after 3 weeks vs untreated controls (100% = plants have died, 0% = like control plants)): 100%
- pest or weed control at 20 g/ha (ALOMY [15]; Alopecurus myosuroides, 504 h, 20 g/ha, scored visually after 3 weeks, 100% = plants have died, 0% = like control plants): 80%
- pest or weed control at 20 g/ha (AMARE [16]; Amaranthus retroflexus, 504 h, 20 g/ha, scored visually after 3 weeks vs untreated controls, 100% = plants have died, 0% = like control plants): 100%
- pest or weed control at 80 g/ha (AMARE [16]; Amaranthus retroflexus, 504 h, 80 g/ha, scored visually after 3 weeks vs untreated controls, 100% = plants have died, 0% = like control plants): 100%

— patent US12655116B2, “Substituted isophthalic acid diamides” (Bayer Aktiengesellschaft, priority 2020, dated 2026)
